{
  "source": "paper PMC12006963",
  "about": "“Application of Deuterium in an M1 Positive Allosteric Modulator Back-Up Program: The Discovery of VU6045422” (ACS Chemical Neuroscience, 2025)",
  "key": {"hM2-5": {"system": "hM2-5", "assay": "Muscarinic selectivity, human M2-5 calcium mobilization", "assay_type": "cell-based", "experimental": "Procedures for Biological Experiments\nCalcium mobilization assays:\nAll functional cell-based assays were performed in stable Chinese Hamster Ovary (CHO) cell lines constitutively expressing human M5 or human M1 receptors. For full muscarinic selectivity, CHO cells expressing human M3, human M2 plus Gqi5 or human M4 plus Gqi5 were used. Cells were plated at 15,000 cells per 20 µL per well in black 384-well, TC-treated, clear-bottomed plates (Greiner) in Ham’s F12 medium supplemented with 10% FBS and 20 mM HEPES. Cells were incubated overnight at 37 °C under 5% CO2. […] The compound plate, cell plate, and plates containing EC20 and EC80 acetylcholine concentrations were placed in a Hamamatsu FDSS 6000 or 7000 kinetic imaging plate reader equipped to measure Ex480/Em540 fluorescence. […] After 2 seconds of collecting baseline fluorescence, 20 µL of the compound solutions were added to the cell plate. […] The fluorescence signal was collected for a total of 300 seconds. […] Data were imported and analyzed in Dotmatics Informatics software. by normalizing all data in the individual kinetic traces to the initial fluorescence read. The magnitude of each agonist addition was then determined and normalized to the average maximum response. […] The IC50 determined using the EC80 of acetylcholine is the value reported. […]"}, "hERG": {"molecular_target": "hERG (Homo sapiens, UniProt Q12809)", "parameters": "method as in PMID 39660766", "conditions": "read-out: hERG manual patch clamp IC50; cited from earlier work"}, "[1]": {"molecular_target": "Platelet Activating Factor (PAF) (Homo sapiens, UniProt P25105)", "sequence (P25105 whole entry)": "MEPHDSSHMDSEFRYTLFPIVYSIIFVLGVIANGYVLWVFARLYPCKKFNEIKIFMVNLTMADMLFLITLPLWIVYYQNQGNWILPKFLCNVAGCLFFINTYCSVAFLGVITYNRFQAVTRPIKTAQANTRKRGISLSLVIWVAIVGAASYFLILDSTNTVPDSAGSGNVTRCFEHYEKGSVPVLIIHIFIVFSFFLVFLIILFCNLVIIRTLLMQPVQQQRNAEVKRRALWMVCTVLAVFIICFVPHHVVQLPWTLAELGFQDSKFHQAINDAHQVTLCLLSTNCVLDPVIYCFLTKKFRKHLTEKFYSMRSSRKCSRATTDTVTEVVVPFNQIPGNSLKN", "assay": "Eurofins radioligand binding"}, "Dopamine D2S": {"molecular_target": "Dopamine D2S (Homo sapiens, UniProt P14416)", "sequence (P14416 1-414 isoform P14416-2)": "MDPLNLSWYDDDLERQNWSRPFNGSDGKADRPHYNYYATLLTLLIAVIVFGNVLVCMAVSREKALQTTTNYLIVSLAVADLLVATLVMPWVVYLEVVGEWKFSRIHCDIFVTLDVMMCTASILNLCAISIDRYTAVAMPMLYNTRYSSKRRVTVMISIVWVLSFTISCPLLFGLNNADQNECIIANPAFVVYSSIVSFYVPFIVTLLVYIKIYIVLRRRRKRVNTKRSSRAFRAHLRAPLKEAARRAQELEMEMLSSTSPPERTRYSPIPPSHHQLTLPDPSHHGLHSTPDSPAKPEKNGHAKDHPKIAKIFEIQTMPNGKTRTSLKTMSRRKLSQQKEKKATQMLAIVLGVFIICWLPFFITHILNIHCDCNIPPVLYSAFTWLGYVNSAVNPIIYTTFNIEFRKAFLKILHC", "assay": "Eurofins radioligand binding"}, "Serotonin (5-HT1A)": {"molecular_target": "Serotonin (5-HT1A) (Homo sapiens, UniProt P08908)", "sequence (P08908 whole entry)": "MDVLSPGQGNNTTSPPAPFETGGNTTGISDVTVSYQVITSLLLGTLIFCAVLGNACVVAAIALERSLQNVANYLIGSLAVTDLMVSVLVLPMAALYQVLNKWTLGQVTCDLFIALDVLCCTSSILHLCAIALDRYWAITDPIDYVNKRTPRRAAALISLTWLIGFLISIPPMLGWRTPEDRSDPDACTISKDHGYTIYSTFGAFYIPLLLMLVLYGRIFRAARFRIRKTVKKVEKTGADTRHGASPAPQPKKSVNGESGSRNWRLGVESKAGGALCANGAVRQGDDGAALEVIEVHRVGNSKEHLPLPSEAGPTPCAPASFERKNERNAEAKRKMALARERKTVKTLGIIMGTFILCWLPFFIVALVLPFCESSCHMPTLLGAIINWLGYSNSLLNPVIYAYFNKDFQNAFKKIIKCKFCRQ", "assay": "Eurofins radioligand binding"}, "Muscarinic M2": {"molecular_target": "Muscarinic M2 (Homo sapiens, UniProt P08172)", "assay": "Eurofins radioligand binding"}, "[2]": {"assay": "GSH trapping in microsomes", "assay_type": "in vitro ADME", "conditions": "rat, dog, cyno, and human microsomes"}, "Adenosine A2A": {"molecular_target": "Adenosine A2A (Homo sapiens, UniProt P29274)", "assay": "Eurofins radioligand binding"}, "[3]": {"molecular_target": "Transporter, Dopamine (DAT) (Homo sapiens, UniProt Q01959)", "assay": "Eurofins radioligand binding"}, "Adenosine A1": {"molecular_target": "Adenosine A1 (Homo sapiens, UniProt P30542)", "assay": "Eurofins radioligand binding"}, "CYP 3A4": {"molecular_target": "CYP 3A4 (Homo sapiens, UniProt P08684)", "assay": "CYP isoform contribution to metabolism: 3A4", "assay_type": "in vitro ADME"}, "GABAA, Muscimol, Central": {"system": "GABAA, Muscimol, Central", "assay": "Eurofins radioligand binding", "parameters": "species or system Rat"}, "[4]": {"system": "bacterial mutagenicity (4-strain with and without S9)", "assay": "Bacterial mutagenicity mini-AMES assay", "assay_type": "cell-based"}, "Dopamine D3": {"molecular_target": "Dopamine D3 (Homo sapiens, UniProt P35462)", "assay": "Eurofins radioligand binding"}, "Histamine H1": {"molecular_target": "Histamine H1 (Homo sapiens, UniProt P35367)", "assay": "Eurofins radioligand binding"}, "hERG potassium channel": {"molecular_target": "hERG potassium channel (Homo sapiens, UniProt Q12809)", "assay": "Eurofins radioligand binding"}, "[5]": {"system": "GABAA, Flunitrazepam, Central", "assay": "Eurofins radioligand binding", "parameters": "species or system Rat"}, "[6]": {"molecular_target": "Leukotriene, Cysteinyl CysLT1 (Homo sapiens, UniProt Q9Y271)", "assay": "Eurofins radioligand binding"}, "Endothelin ETA": {"molecular_target": "Endothelin ETA (Homo sapiens, UniProt P25101)", "assay": "Eurofins radioligand binding"}, "GABAB1A": {"molecular_target": "GABAB1A (Homo sapiens, UniProt Q9UBS5)", "sequence (Q9UBS5 15-961 limits assumed)": "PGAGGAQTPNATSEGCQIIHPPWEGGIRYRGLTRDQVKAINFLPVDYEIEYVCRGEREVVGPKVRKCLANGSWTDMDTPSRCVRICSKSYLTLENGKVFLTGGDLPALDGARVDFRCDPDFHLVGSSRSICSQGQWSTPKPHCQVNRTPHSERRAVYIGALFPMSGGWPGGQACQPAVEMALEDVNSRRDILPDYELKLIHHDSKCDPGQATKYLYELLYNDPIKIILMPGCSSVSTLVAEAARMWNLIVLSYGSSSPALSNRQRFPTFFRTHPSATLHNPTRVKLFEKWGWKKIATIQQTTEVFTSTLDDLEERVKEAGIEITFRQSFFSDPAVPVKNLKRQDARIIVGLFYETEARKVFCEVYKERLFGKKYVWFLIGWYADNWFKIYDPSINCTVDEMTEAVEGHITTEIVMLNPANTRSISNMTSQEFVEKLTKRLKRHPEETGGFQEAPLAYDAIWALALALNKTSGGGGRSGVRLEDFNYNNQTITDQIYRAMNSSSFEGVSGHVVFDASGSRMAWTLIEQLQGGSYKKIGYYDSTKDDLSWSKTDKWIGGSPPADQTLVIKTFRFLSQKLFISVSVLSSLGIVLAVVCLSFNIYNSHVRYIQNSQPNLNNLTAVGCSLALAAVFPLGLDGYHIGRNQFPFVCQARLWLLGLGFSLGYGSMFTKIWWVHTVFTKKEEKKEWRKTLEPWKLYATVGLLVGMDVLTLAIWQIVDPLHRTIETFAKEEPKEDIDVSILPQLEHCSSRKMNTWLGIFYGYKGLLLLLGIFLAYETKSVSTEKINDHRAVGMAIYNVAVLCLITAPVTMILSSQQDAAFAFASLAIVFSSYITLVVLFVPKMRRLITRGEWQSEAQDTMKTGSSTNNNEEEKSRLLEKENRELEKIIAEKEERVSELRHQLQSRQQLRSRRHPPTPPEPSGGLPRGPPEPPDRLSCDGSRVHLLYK", "sequence (O75899 42-941 partner)": "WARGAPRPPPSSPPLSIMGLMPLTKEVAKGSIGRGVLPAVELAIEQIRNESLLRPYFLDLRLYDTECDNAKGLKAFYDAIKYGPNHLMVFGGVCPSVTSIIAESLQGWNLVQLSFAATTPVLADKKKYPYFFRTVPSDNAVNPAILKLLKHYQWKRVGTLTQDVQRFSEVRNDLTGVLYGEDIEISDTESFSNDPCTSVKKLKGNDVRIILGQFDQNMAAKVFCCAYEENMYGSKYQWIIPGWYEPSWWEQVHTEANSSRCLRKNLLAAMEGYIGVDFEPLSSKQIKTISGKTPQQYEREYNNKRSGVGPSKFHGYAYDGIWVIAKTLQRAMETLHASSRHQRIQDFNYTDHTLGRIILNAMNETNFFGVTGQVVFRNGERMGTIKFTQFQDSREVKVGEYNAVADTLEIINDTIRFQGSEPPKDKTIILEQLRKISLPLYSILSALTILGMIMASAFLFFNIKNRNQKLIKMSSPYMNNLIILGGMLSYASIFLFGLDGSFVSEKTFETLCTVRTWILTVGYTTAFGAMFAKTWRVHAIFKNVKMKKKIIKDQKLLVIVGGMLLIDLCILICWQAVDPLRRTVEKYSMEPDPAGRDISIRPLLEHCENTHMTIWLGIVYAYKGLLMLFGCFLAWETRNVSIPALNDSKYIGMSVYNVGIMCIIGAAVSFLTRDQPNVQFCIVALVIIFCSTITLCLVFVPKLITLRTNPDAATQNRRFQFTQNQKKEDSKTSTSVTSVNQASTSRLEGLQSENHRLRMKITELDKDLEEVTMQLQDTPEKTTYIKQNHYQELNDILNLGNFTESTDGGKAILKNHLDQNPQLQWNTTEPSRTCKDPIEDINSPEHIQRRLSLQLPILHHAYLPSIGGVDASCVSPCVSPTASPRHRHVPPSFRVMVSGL", "assay": "Eurofins radioligand binding"}, "Phorbol Ester": {"system": "Phorbol Ester", "assay": "Eurofins radioligand binding", "parameters": "species or system Mouse"}, "CYP [7]": {"system": "CYP", "assay": "Time-dependent CYP inhibition", "assay_type": "in vitro ADME", "conditions": "in words"}, "Muscarinic M1": {"molecular_target": "Muscarinic M1 (Homo sapiens, UniProt P11229)", "sequence (P11229 whole entry)": "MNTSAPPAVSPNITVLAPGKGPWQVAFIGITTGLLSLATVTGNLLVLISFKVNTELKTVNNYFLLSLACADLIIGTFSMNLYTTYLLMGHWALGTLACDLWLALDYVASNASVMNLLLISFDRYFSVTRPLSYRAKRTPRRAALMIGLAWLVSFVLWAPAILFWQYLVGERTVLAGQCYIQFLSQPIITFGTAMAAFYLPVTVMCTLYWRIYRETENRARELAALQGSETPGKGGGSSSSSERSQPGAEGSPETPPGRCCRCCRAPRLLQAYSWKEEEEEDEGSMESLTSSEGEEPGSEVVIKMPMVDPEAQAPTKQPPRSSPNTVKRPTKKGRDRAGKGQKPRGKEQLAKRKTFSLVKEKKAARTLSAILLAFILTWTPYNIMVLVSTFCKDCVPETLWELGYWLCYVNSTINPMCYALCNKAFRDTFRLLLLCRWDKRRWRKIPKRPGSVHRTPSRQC", "assay": "Eurofins radioligand binding"}, "Bradykinin B1": {"molecular_target": "Bradykinin B1 (Homo sapiens, UniProt P46663)", "assay": "Eurofins radioligand binding"}, "CYP 3A5": {"molecular_target": "CYP 3A5 (Homo sapiens, UniProt P20815)", "assay": "CYP isoform contribution to metabolism: 3A5", "assay_type": "in vitro ADME"}, "[8]": {"molecular_target": "bile salt export pump (BSEP) (Homo sapiens, UniProt O95342)", "sequence (O95342 whole entry, species assumed)": "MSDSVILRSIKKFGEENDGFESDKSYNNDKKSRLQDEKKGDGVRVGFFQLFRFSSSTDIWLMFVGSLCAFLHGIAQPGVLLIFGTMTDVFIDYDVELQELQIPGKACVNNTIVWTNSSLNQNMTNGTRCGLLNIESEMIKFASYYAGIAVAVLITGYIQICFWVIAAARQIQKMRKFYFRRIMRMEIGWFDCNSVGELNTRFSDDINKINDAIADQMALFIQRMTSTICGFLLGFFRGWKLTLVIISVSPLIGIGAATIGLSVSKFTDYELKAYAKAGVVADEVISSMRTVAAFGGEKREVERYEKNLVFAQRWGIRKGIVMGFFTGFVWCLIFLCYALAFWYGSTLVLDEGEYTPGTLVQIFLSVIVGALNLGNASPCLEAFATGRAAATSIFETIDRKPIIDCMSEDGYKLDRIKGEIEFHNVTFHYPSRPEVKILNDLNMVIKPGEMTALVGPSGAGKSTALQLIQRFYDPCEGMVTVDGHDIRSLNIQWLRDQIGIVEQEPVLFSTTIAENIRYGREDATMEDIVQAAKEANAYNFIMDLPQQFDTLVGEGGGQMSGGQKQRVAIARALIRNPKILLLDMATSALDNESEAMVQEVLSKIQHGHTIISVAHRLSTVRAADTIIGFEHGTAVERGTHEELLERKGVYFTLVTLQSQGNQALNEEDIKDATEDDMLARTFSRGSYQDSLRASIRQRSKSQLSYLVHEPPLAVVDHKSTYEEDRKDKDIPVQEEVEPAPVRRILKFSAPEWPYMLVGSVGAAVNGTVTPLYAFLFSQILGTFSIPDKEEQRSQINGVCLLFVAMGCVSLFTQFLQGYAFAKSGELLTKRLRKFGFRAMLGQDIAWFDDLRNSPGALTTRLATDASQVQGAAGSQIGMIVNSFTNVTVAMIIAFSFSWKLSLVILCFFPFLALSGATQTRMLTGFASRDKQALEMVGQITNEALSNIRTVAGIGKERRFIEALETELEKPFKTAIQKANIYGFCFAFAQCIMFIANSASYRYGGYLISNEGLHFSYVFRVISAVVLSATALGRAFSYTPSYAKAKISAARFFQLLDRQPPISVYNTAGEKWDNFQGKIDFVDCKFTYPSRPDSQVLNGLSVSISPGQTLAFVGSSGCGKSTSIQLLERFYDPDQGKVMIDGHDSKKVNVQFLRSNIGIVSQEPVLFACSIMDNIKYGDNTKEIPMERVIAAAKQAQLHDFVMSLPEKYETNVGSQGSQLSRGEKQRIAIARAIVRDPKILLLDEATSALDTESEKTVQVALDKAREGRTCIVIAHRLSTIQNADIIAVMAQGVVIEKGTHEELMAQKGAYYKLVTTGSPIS", "assay": "Bile salt export pump inhibition", "assay_type": "in vitro ADME"}, "[9]": {"molecular_target": "Transporter, Serotonin (SERT) (Homo sapiens, UniProt P31645)", "assay": "Eurofins radioligand binding"}, "CYP [10]": {"system": "CYP", "assay": "CYP induction", "assay_type": "in vitro ADME", "conditions": "in words"}, "Opiate δ1 (OP1, DOP)": {"molecular_target": "Opiate δ1 (OP1, DOP) (Homo sapiens, UniProt P41143)", "assay": "Eurofins radioligand binding"}, "Bradykinin B2": {"molecular_target": "Bradykinin B2 (Homo sapiens, UniProt P30411)", "assay": "Eurofins radioligand binding"}},
  "data": [
    {"smiles": "[2H]C1([2H])c2ncccc2C(=O)N1Cc1c(F)cc(-c2cccc3nn(C)cc23)cc1F", "note": "[compound 3]", "values": [
      {"measurement": "EC50", "setting": "hM2-5", "result": "> 30", "unit": "µM"}
    ]},
    {"smiles": "Cn1cc2c(-c3cc(F)c(CN4Cc5ncccc5C4=O)c(F)c3)cccc2n1", "note": "[compound 1]", "values": [
      {"measurement": "IC50", "setting": "hERG", "result": 12, "unit": "µM"}
    ]},
    {"smiles": "[2H]C1([2H])c2ncccc2C(=O)N1Cc1c(F)cc(-c2cccc3nn(C([2H])([2H])[2H])cc23)cc1F", "note": "[compound 5]", "values": [
      {"measurement": "inhibition at 10 µM", "setting": "[1]", "result": 22, "unit": "%"},
      {"measurement": "inhibition at 10 µM", "setting": "Dopamine D2S", "result": 2, "unit": "%"},
      {"measurement": "inhibition at 10 µM", "setting": "Serotonin (5-HT1A)", "result": -5, "unit": "%"},
      {"measurement": "inhibition at 10 µM", "setting": "Muscarinic M2", "result": 5, "unit": "%"},
      {"measurement": "conjugation in GSH trapping studies", "setting": "[2]", "result": "< 0.1", "unit": "%"},
      {"measurement": "EC50", "setting": "hM2-5", "result": "> 30", "unit": "µM"},
      {"measurement": "inhibition at 10 µM", "setting": "Adenosine A2A", "result": 7, "unit": "%"},
      {"measurement": "inhibition at 10 µM", "setting": "[3]", "result": 32, "unit": "%"},
      {"measurement": "inhibition at 10 µM", "setting": "Adenosine A1", "result": 30, "unit": "%"},
      {"measurement": "contribution of CYP 3A4 to metabolism", "setting": "CYP 3A4", "result": 92.6, "unit": "%"},
      {"measurement": "% Inhibition at 10 µM", "setting": "GABAA, Muscimol, Central", "result": 0, "unit": "%"},
      {"measurement": "bacterial mutagenicity mini-AMES result", "setting": "[4]", "result": "negative"},
      {"measurement": "inhibition at 10 µM", "setting": "Dopamine D3", "result": -1, "unit": "%"},
      {"measurement": "inhibition at 10 µM", "setting": "Histamine H1", "result": 2, "unit": "%"},
      {"measurement": "inhibition at 10 µM", "setting": "hERG potassium channel", "result": 9, "unit": "%"},
      {"measurement": "% Inhibition at 10 µM", "setting": "[5]", "result": 0, "unit": "%"},
      {"measurement": "inhibition at 10 µM", "setting": "[6]", "result": -9, "unit": "%"},
      {"measurement": "inhibition at 10 µM", "setting": "Endothelin ETA", "result": -4, "unit": "%"},
      {"measurement": "inhibition at 10 µM", "setting": "GABAB1A", "result": -5, "unit": "%"},
      {"measurement": "% Inhibition at 10 µM", "setting": "Phorbol Ester", "result": 5, "unit": "%"},
      {"measurement": "time-dependent CYP inhibition liability", "setting": "CYP [7]", "result": "no time-dependent CYP inhibition or CYP induction liabilities"},
      {"measurement": "inhibition at 10 µM", "setting": "Muscarinic M1", "result": 0, "unit": "%"},
      {"measurement": "inhibition at 10 µM", "setting": "Bradykinin B1", "result": 13, "unit": "%"},
      {"measurement": "contribution of CYP 3A5 to metabolism", "setting": "CYP 3A5", "result": 5.8, "unit": "%"},
      {"measurement": "IC50", "setting": "[8]", "result": 42.3, "unit": "µM"},
      {"measurement": "inhibition at 10 µM", "setting": "[9]", "result": -4, "unit": "%"},
      {"measurement": "CYP induction liability", "setting": "CYP [10]", "result": "no time-dependent CYP inhibition or CYP induction liabilities"},
      {"measurement": "inhibition at 10 µM", "setting": "Opiate δ1 (OP1, DOP)", "result": 1, "unit": "%"},
      {"measurement": "inhibition at 10 µM", "setting": "Bradykinin B2", "result": 2, "unit": "%"}
    ]}
  ]
}
